Data on 3 molecules can be found in US7589097B2, “Triazol[4,5-d] pyramidine derivatives and their use as purinergic receptor antagonists” (Vernalis Research Limited, priority 2001, dated 2009).

SMILES strings stand for the structures.

One series concerns Parkinsonian patients. As to conditions: cited from earlier work.
The next series deals with cataleptic responses. The following applies: cited from earlier work.
The target in series [1] is human adenosine A2A receptors (Homo sapiens, UniProt P29274). Briefly: Binding affinities at hA2A receptors, displacement of [3H]-CGS 21680. From the text:
Adenosine Receptor Binding Binding Affinities at hA2A Receptors
In general terms: Loss of bound radioactivity is the signal in a displacement assay; it reports binding, not function.

human adenosine A2A receptors, sequence (P29274 whole entry): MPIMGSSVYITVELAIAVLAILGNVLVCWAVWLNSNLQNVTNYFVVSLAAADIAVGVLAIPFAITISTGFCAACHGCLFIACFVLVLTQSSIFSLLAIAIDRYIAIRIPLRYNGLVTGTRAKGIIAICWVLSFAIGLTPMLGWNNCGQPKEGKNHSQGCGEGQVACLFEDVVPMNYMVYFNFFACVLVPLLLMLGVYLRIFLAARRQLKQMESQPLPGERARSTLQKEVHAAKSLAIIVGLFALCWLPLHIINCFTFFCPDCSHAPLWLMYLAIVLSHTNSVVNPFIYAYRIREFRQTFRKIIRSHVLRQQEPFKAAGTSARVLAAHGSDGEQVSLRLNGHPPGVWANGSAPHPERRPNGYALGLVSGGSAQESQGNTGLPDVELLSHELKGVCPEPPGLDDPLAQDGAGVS

Consider `Cn1c(=O)c2[nH]cnc2n(C)c1=O` [Theophylline, theophylline], for which, in the series on Parkinsonian patients (15 Parkinsonian patients, up to 12 weeks, 150 mg/day oral), the “mean objective disability scores” value is “significant improvements”. In addition, the “patients reporting moderate or marked subjective improvement” value in the series on Parkinsonian patients (of 15 Parkinsonian patients, up to 12 weeks, 150 mg/day oral) was 11. Moreover, in the series with Parkinsonian patients (slow release oral preparation 150 mg/day, after one week, Parkinsonian patients), the serum theophylline levels is recorded as 4.44 mg/L.
In the case of `CCCn1c(=O)c2c(nc(/C=C/c3ccc(OC)c(OC)c3)n2C)n(CCC)c1=O` [KF 17837, (E)-8-(3,4-dimethoxystyryl)-1,3-dipropyl-7-methylxanthine], in the series on cataleptic responses (in vivo), the “anticataleptic effects of a subthreshold dose of L-DOPA plus benserazide” value is “potentiated”; the “catalepsy induced by haloperidol and reserpine” value is “reduced”. For the same molecule, in the series on cataleptic responses (oral administration), the “cataleptic responses induced by intracerebroventricular CGS 21680” value is given as “significantly ameliorated”.
Molecule `Nc1nc(-c2ccco2)c2nnn(Cc3ccc(Cl)cc3N)c2n1` [Example 120, 3-(2-amino-4-chlorobenzyl)-7-(2-furyl)-3H-[1,2,3]triazolo[4,5-d]pyrimidine-5-amine] registered a melting point of 211.4 to 211.6 °C. In series [1], this molecule gave a Ki of 1 nM.

As usually defined, the Ki is a dissociation constant, usually derived from enzyme kinetics or from competition with a known ligand. The melting point is the temperature, or range, at which the solid turns liquid.
